Results reported in paper PMC5727211, “Development of Erasin: a chromone-based STAT3 inhibitor which induces apoptosis in Erlotinib-resistant lung cancer cells” (Scientific Reports, 2017).
Blank lines part the entries; values can stand above or below the molecule they belong to.

How the values were obtained:
[1] = biological target: STAT3 SH2 domain (Homo sapiens, UniProt P40763); assay: FP-based competitive binding assay, STAT3 SH2 domain; conditions: mean ± s.d., three experiments; for IC50: 1 h with protein, then 1 h with peptide, read-out: STAT3 app. IC50; for inhibition at 80 µM / STAT3 inhibition: at 80 µM
Sequence of STAT3 SH2 domain (P40763 whole entry, the tested form may be a part): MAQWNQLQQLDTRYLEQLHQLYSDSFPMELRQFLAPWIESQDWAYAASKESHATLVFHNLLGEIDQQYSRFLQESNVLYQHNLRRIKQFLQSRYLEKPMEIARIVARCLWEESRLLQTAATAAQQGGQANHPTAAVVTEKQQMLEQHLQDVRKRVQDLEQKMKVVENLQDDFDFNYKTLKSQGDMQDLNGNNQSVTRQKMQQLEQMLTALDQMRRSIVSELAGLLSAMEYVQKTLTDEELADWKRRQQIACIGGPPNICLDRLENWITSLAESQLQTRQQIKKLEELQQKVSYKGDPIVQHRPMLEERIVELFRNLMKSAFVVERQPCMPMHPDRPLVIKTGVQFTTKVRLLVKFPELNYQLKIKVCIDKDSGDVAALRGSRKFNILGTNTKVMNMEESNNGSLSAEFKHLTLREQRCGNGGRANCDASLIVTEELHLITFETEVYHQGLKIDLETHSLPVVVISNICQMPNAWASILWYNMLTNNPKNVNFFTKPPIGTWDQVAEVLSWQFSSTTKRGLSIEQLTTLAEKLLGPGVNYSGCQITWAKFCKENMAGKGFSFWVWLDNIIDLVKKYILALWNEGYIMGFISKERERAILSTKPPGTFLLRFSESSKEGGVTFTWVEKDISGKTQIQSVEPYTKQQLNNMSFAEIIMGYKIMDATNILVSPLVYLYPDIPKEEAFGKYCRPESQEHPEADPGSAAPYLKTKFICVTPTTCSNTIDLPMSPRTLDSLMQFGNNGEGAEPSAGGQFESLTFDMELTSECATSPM
Procedure: (§1) The STAT family display a high degree of homology. […] Vilsmeyer-Haack formylation of 2-hydroxy acetophenones led to 3-formyl chromones, which were subsequently converted to the acyl hydrazones by reaction with hydrazides (Fig. 1). The target molecules were tested for their abilities to inhibit binding of fluorophore-labeled peptides to the SH2 domains of STAT1[24], STAT3[25], and STAT5b[26] in assays based on fluorescence polarization (FP). The more distantly related SH2 domain of the tyrosine kinase Lck served as additional specificity control[27],[28].
Assays were performed essentially as described. In brief, protein was incubated with the test compounds for 1 h at room temperature at the following protein concentrations: STAT1: 400 nM, STAT3: 210 nM, STAT5b: 300 nM, Lck SH2: 35 nM. Subsequently, the corresponding fluorophore-labeled peptide was added: STAT1: (5-carboxyfluorescein)-GpYDKPHVL-OH, derived from the interferon-γ receptor[24]; STAT3: (5-carboxyfluorescein)-GpYLPQTV-NH2, derived from the gp130 subunit of the IL-6 receptor[25]; STAT5b: (5-carboxyfluorescein)-GpYLVLDKW-OH, derived from the erythropoietin receptor[26]; Lck SH2: (5-carboxyfluorescein)-GpYEEIP-OH, derived from the middle-T antigen. After a further hour of incubation, fluorescence polarization was measured in a plate reader (Tecan Infinite F500). Apparent IC50 data shown in Tables 1, 2, and S1 and the inhibition curves shown in Fig. 2a correspond to this time point. The majority of the pipetting work was carried out using a Biomek FXp workstation (Beckman-Coulter). […]

[2] = biological target: T1, Lck SH2 (Homo sapiens, UniProt P06239); assay: FP-based competitive binding assay, Lck SH2 domain; conditions: for Lck inhibition: at 80 µM
T1 construct: STAT1: 400 nM, STAT3: 210 nM, STAT5b: 300 nM, Lck SH2: 35 nM
T1 sequence (P06239 127-224 limits assumed): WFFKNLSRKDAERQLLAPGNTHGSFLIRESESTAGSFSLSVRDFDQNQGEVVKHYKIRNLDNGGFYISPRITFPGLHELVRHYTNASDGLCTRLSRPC
Procedure: as §1
(§2) Assays were performed essentially as described. In brief, protein was incubated with the test compounds for 1 h at room temperature at the following protein concentrations: STAT1: 400 nM, STAT3: 210 nM, STAT5b: 300 nM, Lck SH2: 35 nM. Subsequently, the corresponding fluorophore-labeled peptide was added: STAT1: (5-carboxyfluorescein)-GpYDKPHVL-OH, derived from the interferon-γ receptor[24]; STAT3: (5-carboxyfluorescein)-GpYLPQTV-NH2, derived from the gp130 subunit of the IL-6 receptor[25]; STAT5b: (5-carboxyfluorescein)-GpYLVLDKW-OH, derived from the erythropoietin receptor[26]; Lck SH2: (5-carboxyfluorescein)-GpYEEIP-OH, derived from the middle-T antigen. After a further hour of incubation, fluorescence polarization was measured in a plate reader (Tecan Infinite F500). Apparent IC50 data shown in Tables 1, 2, and S1 and the inhibition curves shown in Fig. 2a correspond to this time point. The majority of the pipetting work was carried out using a Biomek FXp workstation (Beckman-Coulter). Buffer composition: 10 mM Tris pH 8.0, 50 mM NaCl, 1 mM EDTA, 1 mM dithiothreitol (DTT), 0.1% Nonidet P-40, and 2% DMSO.
Supplementary Figures and Table
No Structure app. IC50 [µM] or
Supplementary Table S1: Activities of test compounds in fluorescence polarization assays against the
SH2 domains of Lck. See the Supporting Methods for details. […]

[3] = biological target: T2, STAT5b SH2 domain (Homo sapiens, UniProt P51692); assay: FP-based competitive binding assay, STAT5b SH2 domain; conditions: mean ± s.d., three experiments; for IC50: 1 h with protein, then 1 h with peptide, read-out: STAT5b app. IC50; for STAT5b inhibition / inhibition at 80 µM: at 80 µM
T2 sequence (P51692 1-787): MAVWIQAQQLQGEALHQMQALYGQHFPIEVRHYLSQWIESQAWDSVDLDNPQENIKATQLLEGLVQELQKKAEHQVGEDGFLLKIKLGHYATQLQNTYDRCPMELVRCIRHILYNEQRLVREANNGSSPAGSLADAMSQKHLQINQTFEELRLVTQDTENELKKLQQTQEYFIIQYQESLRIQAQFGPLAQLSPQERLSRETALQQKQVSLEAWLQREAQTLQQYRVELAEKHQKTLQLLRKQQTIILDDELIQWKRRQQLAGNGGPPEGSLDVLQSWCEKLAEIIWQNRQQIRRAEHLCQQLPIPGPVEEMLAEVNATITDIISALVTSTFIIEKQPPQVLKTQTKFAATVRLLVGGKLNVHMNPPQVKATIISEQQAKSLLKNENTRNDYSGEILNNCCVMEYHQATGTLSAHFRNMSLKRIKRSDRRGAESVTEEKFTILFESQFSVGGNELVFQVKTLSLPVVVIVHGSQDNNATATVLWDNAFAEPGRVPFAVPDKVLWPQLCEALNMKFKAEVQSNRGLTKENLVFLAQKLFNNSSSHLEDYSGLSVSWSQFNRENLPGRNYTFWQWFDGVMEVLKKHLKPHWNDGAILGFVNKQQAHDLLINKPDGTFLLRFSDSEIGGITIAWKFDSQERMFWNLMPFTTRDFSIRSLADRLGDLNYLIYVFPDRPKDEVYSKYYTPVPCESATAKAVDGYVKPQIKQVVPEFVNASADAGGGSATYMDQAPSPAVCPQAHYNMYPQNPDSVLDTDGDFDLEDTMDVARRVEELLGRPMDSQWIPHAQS
Procedure: as §1, §2

[4] = biological target: T3, STAT1 SH2 domain (Homo sapiens, UniProt P42224); assay: FP-based competitive binding assay, STAT1 SH2 domain; conditions: mean ± s.d., three experiments; for IC50: 1 h with protein, then 1 h with peptide, read-out: STAT1 app. IC50; for inhibition at 80 µM / STAT1 inhibition: at 80 µM
T3 sequence (P42224 1-750): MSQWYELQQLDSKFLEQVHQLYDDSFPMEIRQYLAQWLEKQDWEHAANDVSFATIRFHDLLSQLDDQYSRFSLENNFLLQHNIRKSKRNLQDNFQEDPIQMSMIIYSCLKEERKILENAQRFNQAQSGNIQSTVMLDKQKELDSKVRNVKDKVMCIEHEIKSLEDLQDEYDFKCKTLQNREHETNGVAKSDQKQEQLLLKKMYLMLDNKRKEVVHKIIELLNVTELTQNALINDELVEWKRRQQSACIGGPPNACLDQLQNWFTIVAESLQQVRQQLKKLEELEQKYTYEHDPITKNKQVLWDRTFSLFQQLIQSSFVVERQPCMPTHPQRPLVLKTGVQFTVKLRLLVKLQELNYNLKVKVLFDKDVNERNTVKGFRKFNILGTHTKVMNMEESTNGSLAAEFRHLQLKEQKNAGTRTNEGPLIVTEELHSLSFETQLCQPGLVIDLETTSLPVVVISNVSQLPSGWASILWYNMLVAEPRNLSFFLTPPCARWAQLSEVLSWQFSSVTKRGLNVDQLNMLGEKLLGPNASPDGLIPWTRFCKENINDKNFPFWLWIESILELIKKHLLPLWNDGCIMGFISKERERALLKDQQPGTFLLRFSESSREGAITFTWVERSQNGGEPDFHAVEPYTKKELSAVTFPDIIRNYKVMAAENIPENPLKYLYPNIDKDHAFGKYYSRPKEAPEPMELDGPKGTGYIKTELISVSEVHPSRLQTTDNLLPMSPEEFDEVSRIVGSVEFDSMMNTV
Procedure: as §1, §2

[5] = test system: Erlotinib-resistant HCC-827 cells; assay: Apoptosis assay (Annexin V/7-AAD flow cytometry), Erlotinib-resistant HCC-827 cells; type: cell-based, human; conditions: 24 h
Procedure: Afterwards, the cell culture supernatant from each well was collected. […] The supernatants were then returned to each well to neutralize the Accutase solution and the cells were centrifuged at 3000 rpm, at 4 °C for 5 min. The cell pellets were washed twice with cold PBS and centrifuged again. […] Cells were resuspended in 1 x binding buffer and incubated with PE Annexin V and 7-AAD at 4 °C for 30 min. Apoptosis was measured using an LSR II flow cytometer (BD Bioscience). Experiments were carried out in at least triplicate. […]

[6] = test system: parental HCC-827 cells; assay: Apoptosis assay (Annexin V/7-AAD flow cytometry), parental HCC-827 cells; type: cell-based, human; conditions: 24 h
Procedure: Afterwards, the cell culture supernatant from each well was collected. […] The supernatants were then returned to each well to neutralize the Accutase solution and the cells were centrifuged at 3000 rpm, at 4 °C for 5 min. The cell pellets were washed twice with cold PBS and centrifuged again. […] Cells were resuspended in 1 x binding buffer and incubated with PE Annexin V and 7-AAD at 4 °C for 30 min. Apoptosis was measured using an LSR II flow cytometer (BD Bioscience). Experiments were carried out in at least triplicate.

Compound: CC(C)c1ccc2occ(/C=N/NC(=O)c3cccnc3)c(=O)c2c1 [Compound 7]
IC50 [1]: 22 ± 1 µM
Lck inhibition [2]: no inhibition
IC50 [3]: 52 ± 12 µM
IC50 [4]: 39 ± 2 µM

Compound: CC(C)(C)c1ccc2occ(/C=N/NC(=O)c3ccc(O)cc3)c(=O)c2c1 [Compound 14]
IC50 [1]: 19 ± 1 µM
IC50 [4]: 77 ± 16 µM

Compound: COc1ccc(C(=O)N/N=C/c2coc3ccc(C(C)(C)C)cc3c2=O)cc1 [Compound 15]
IC50 [1]: 26 ± 5 µM
inhibition at 80 µM [4]: 34 ± 4%

Compound: O=C(N/N=C/c1coc2ccc(-c3ccccc3)cc2c1=O)c1cccnc1 [Compound 10]
STAT3 inhibition [1]: 35 ± 5% inhibition at 80 µM
Lck inhibition [2]: no inhibition
STAT5b inhibition [3]: no inhibition at 80 µM
STAT1 inhibition [4]: 36 ± 2% inhibition at 80 µM

Compound: CC(C)(C)c1ccc2occ(C=O)c(=O)c2c1 [Compound 8a]
IC50 [1]: 8.9 ± 0.8 µM
IC50 [3]: 27.7 ± 1.5 µM
IC50 [4]: 15 ± 1.4 µM

Compound: CCC(C)(C)c1ccc2occ(C=O)c(=O)c2c1 [Compound 9a]
IC50 [1]: 5.3 ± 0.4 µM
IC50 [3]: 34.8 ± 4.2 µM
IC50 [4]: 10.7 ± 1.1 µM

Compound: C#Cc1cccc(Nc2ncnc3cc(OCCOC)c(OCCOC)cc23)c1 [Erlotinib]
apoptosis ([5]; 10 nM): did not show increased apoptosis
increase of the apoptotic rate ([5]; 1 µM): only a twofold increase
apoptosis ([6]; 1 nM): significant increase in apoptosis
induction of apoptosis ([6]; 1 µM): more than tenfold induction of apoptosis

Compound: O=C(N/N=C/c1coc2ccc([N+](=O)[O-])cc2c1=O)c1cccnc1 [Compound 12]
inhibition at 80 µM [1]: 14 ± 2%
inhibition at 80 µM [2]: 22 ± 6%
STAT5b inhibition [3]: no inhibition at 80 µM
inhibition at 80 µM [4]: 3 ± 3%

Compound: COc1ccc2occ(/C=N/NC(=O)c3cccnc3)c(=O)c2c1 [Compound 11]
IC50 [1]: 65 ± 1 µM
inhibition at 80 µM [2]: 23 ± 2%
inhibition at 80 µM [3]: 30 ± 7%
inhibition at 80 µM [4]: 19 ± 2%

Compound: Cc1ccc2occ(/C=N/NC(=O)c3cccnc3)c(=O)c2c1 [Compound 5]
inhibition at 80 µM [1]: 40 ± 2%
Lck inhibition [2]: no inhibition
IC50 [3]: 32 ± 24 µM
inhibition at 80 µM [4]: 12 ± 3%

Compound: CC(C)(C)c1ccc2occ(/C=N/NC(=O)c3ccccc3)c(=O)c2c1 [Compound 13]
IC50 [1]: 14 ± 2 µM
IC50 [4]: 35 ± 4 µM

Compound: O=C(N/N=C/c1coc2ccc(Cl)cc2c1=O)c1cccnc1 [Compound 3]
IC50 [1]: 40 ± 3 µM
inhibition at 80 µM [2]: 6 ± 6%
inhibition at 80 µM [3]: 31 ± 4%
IC50 [4]: 32 ± 11 µM

Compound: O=C(N/N=C/c1coc2ccc(Br)cc2c1=O)c1cccnc1 [Compound 4]
IC50 [1]: 25 ± 1 µM
inhibition at 80 µM [2]: 13 ± 2%
inhibition at 80 µM [3]: 33 ± 7%
inhibition at 80 µM [4]: 36 ± 6%

Second part, the molecule after the results:

inhibition at 80 µM [1]: 9 ± 3%
Compound: CC(C)(C)c1ccc2occ(/C=N/NCc3ccccc3)c(=O)c2c1 [Compound 22]

IC50 [1]: 50 ± 7 µM
STAT1 inhibition [4]: 9 ± 4% inhibition at 80 µM
Compound: CC(C)(C)c1ccc2occ(/C=N/NC(=O)c3ccc[nH]3)c(=O)c2c1 [Compound 19]

IC50 [1]: 14 ± 1 µM
IC50 [4]: 49 ± 2 µM
Compound: CC(C)(C)c1ccc2occ(/C=N/NC(=O)c3ccco3)c(=O)c2c1 [Compound 17]

STAT3 inhibition [1]: 20 ± 2% at 80 µM
STAT1 inhibition [4]: 12 ± 4% inhibition at 80 µM
Compound: CC(C)(C)c1ccc2occ(/C=N/NC(=O)c3ccc(Cl)cc3)c(=O)c2c1 [Compound 21]

inhibition at 80 µM [1]: 42 ± 2%
inhibition at 80 µM [4]: 15 ± 2%
Compound: COc1cccc(C(=O)N/N=C/c2coc3ccc(C(C)(C)C)cc3c2=O)c1 [Compound 16]

inhibition at 80 µM [1]: 4 ± 3%
Compound: CC(C)(C)c1ccc2occ(/C=N/NS(=O)(=O)c3ccccc3)c(=O)c2c1 [Compound 23]

IC50 [1]: 39 ± 4 µM
inhibition at 80 µM [4]: 32 ± 0.1%
Compound: CC(C)(C)c1ccc2occ(/C=N/NC(=O)c3cccs3)c(=O)c2c1 [Compound 18]

inhibition at 80 µM [1]: 31 ± 8%
inhibition at 80 µM [4]: 10 ± 5%
Compound: CC(C)(C)c1ccc2occ(/C=N/NC(=O)c3ccc(F)cc3)c(=O)c2c1 [Compound 20]
